{"source": "ChEMBL document CHEMBL1201862", "about": "“PubChem BioAssay data set” (2004)", "key": {"Cytochrome P450 2C19": {"target": "Cytochrome P450 2C19 (Homo sapiens, UniProt P33261)", "sequence (P33261 whole entry)": "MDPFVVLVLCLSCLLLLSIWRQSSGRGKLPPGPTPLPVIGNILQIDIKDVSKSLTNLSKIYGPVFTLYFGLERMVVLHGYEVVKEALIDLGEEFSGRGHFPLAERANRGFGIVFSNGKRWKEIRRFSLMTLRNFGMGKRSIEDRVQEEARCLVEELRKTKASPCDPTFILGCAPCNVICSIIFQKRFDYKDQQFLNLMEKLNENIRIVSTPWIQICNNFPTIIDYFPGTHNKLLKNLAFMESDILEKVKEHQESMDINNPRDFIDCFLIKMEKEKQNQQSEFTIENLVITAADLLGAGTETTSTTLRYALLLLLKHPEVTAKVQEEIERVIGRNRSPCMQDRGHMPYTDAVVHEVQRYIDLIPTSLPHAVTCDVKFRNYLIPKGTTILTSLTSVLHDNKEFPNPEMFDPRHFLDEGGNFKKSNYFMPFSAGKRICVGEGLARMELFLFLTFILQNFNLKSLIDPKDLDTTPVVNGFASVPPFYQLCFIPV", "test": "Cytochrome panel assay with activity outcomes. Panel member name: p450-cyp2c19 Compounds with AC50 equal or less than 10 uM are considered active", "format": "functional"}, "Cytochrome P450 2D6": {"target": "Cytochrome P450 2D6 (Homo sapiens, UniProt P10635)", "sequence (P10635 whole entry)": "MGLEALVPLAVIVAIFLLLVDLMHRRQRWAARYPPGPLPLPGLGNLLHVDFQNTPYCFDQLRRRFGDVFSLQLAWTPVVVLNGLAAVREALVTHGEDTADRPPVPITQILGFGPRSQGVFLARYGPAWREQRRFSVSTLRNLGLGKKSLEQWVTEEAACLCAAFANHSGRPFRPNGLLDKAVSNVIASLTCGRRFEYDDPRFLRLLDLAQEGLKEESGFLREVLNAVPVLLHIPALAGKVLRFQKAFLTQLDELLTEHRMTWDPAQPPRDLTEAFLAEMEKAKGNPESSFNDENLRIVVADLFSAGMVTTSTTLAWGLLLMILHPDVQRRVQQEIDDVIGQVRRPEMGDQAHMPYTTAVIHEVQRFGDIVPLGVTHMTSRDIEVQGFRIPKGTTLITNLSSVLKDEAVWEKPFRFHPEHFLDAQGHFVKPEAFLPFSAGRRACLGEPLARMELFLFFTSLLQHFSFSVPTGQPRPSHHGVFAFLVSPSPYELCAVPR"}, "[1]": {"target": "T1, Heat shock factor protein 1 (Mus musculus, UniProt P38532)", "T1 sequence (P38532 whole entry)": "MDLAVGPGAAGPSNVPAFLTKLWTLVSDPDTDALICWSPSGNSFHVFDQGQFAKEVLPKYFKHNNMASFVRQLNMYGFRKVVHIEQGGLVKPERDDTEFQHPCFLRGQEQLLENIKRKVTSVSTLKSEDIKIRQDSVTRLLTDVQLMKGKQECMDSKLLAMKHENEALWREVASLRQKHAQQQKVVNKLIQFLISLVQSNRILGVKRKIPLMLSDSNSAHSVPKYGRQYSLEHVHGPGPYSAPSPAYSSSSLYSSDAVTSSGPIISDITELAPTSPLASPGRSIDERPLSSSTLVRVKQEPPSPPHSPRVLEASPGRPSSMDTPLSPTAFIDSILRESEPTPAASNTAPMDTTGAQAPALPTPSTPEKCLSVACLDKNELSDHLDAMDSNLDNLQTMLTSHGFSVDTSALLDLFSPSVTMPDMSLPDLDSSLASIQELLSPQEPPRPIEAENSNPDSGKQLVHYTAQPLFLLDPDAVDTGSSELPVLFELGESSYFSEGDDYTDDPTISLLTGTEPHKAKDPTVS", "test": "inhibition of MG132-induced HSE-luciferase signal, confirmation, cell-based, NIH3T3, luminescence, dose retest (AID 2382);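 also: NIH3T3 fibroblasts with HSF1-driven luciferase reporter stressed by proteasome inhibitor MG132; luminescence from HSF1-driven luciferase expression after 8 hours of MG132 stress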", "format": "functional"}, "Cytochrome P450 2C9": {"target": "Cytochrome P450 2C9 (Homo sapiens, UniProt P11712)", "sequence (P11712 whole entry)": "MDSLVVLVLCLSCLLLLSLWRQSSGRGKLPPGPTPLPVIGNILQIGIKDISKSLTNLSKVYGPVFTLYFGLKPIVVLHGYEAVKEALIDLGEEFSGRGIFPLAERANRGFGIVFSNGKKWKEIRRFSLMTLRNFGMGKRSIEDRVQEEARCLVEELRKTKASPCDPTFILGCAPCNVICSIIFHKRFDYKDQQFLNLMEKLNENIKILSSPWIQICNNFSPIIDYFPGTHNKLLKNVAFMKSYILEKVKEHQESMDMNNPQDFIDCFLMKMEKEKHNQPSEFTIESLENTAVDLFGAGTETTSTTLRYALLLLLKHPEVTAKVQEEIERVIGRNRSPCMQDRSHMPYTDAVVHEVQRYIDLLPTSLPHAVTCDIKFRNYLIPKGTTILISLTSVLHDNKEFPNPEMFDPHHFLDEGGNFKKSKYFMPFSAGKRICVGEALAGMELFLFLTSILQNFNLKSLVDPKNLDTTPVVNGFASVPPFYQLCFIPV"}, "[2]": {"test_system": "Streptococcus sp. 'group A'", "test": "growth inhibition of control SK(-) GAS strain, dose response, counter-screen for streptokinase expression inhibitor project, luminescence, kanamycin, BacTiterGlo, confirmation (AID 1900)", "format": "functional, organism-based"}, "[3]": {"test": "Luminescence Cell-Based Dose Response HTS to Identify Inhibitors of 5'UTR Stem-Loop Driven Prion Protein mRNA Translation in H4 Neuroglioblastoma Cells. [Related pubchem assays: 1827 (Project Summary), 1813 (Primary HTS)]", "format": "functional"}, "[4]": {"test": "inhibitors of SNCA 5'UTR-driven reporter translation, confirmation, H4 neuroglioma cells, luminescence (AID 1988)", "format": "functional, cell-based"}, "Streptokinase A": {"target": "T2, Streptokinase A (Streptococcus pyogenes serotype M1, UniProt P10520)", "T2 sequence (P10520 whole entry)": "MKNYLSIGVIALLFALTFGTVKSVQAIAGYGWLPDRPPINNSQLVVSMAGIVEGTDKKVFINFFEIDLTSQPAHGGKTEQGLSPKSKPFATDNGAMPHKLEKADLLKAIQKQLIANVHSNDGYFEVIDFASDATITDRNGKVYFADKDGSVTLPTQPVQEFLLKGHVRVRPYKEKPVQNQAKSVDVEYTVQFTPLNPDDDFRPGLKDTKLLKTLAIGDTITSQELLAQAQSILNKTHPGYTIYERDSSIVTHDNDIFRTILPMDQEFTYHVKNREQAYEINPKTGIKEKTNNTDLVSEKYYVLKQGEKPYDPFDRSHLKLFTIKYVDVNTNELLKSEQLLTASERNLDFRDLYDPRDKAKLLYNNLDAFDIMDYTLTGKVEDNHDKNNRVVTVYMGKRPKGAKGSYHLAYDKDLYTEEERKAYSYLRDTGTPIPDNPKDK", "test": "S. pyogenes streptokinase expression inhibitors, potency, dose response, plasminogen activation absorbance, OD405 (AID 1914);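 also: secreted streptokinase activity via plasminogen activation per viability signal from cell pellet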", "format": "functional, Streptococcus pyogenes M1 GAS"}, "Streptococcus": {"test_system": "Streptococcus", "test": "Group A Streptococcus viability loss, dose response, counter-screen for streptokinase expression inhibitor project, luminescence, BacTiterGlo (AID 1915);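 also: potency for reduction of bacterial viability or growth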", "format": "functional, organism-based"}, "Cytochrome P450 1A2": {"target": "T3, Cytochrome P450 1A2 (Homo sapiens, UniProt P05177)", "T3 sequence (P05177 whole entry)": "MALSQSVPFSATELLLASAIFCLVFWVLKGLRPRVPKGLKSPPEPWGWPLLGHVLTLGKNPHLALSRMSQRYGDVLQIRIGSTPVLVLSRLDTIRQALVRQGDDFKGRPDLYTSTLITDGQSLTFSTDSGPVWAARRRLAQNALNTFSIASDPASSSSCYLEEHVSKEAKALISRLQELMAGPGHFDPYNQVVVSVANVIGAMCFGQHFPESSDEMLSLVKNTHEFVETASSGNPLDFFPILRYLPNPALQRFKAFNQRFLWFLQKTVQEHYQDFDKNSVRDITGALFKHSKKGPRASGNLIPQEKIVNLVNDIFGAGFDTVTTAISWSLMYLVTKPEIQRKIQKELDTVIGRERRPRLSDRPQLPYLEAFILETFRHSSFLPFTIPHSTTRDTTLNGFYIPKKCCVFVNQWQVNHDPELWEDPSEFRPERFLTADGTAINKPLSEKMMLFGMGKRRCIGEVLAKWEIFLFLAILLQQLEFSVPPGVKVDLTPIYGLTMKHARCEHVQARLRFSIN"}}, "note": "Calls of active or inactive are those of the source.", "data": [{"compound": "O=S(=O)(NCCNC/C=C\\c1ccc(Br)cc1)c1cccc2cnccc12", "values": [{"measurement": "AC50", "setting": "Cytochrome P450 2C19; read-out: AC50", "value": "15.8 µM (inconclusive)"}, {"measurement": "AC50", "setting": "Cytochrome P450 2D6", "value": "25.1 µM (inconclusive)"}]}, {"compound": "Cc1cccc(-c2ocnc2C(=O)N2CCN(C(=O)c3cccs3)CC2)c1", "values": [{"measurement": "EC50", "setting": "[1]", "value": "> 195 µM (not active)"}]}, {"compound": "Cc1cccc(NC(S)=NNC(=O)CC(C)O)c1C", "note": "(configuration not stated)", "values": [{"measurement": "AC50", "setting": "Cytochrome P450 2C9", "value": "0.00708 µM (inconclusive)"}]}, {"compound": "N=c1ccn2c(n1)O[C@H]1[C@@H](OP(=O)(O)O)[C@H](CO)O[C@H]12", "values": [{"measurement": "AC50", "setting": "Cytochrome P450 2C19", "value": "inconclusive"}]}, {"compound": "COc1ccc(Br)cc1/C=C/c1ccc2cccc(O)c2n1", "values": [{"measurement": "EC50", "setting": "[2]", "value": "0.246 µM (active)"}, {"measurement": "EC50", "setting": "[3]", "value": "13.4 µM (active)"}, {"measurement": "EC50", "setting": "[4]", "value": "> 120 µM (not active)"}, {"measurement": "EC50", "setting": "Streptokinase A", "value": "> 150 µM (not active)"}, {"measurement": "EC50", "setting": "Streptococcus", "value": "6.48 µM (active)"}]}, {"compound": "Cc1nc(SCC(=O)Nc2ccc(N3CCOCC3)cc2)nc(C)c1C", "values": [{"measurement": "AC50", "setting": "Cytochrome P450 2C9", "value": "12.6 µM (inconclusive)"}]}, {"compound": "COc1ccc(-n2nc3ccccc3n2)cc1", "values": [{"measurement": "EC50", "setting": "[1]", "value": "> 195 µM (not active)"}]}, {"compound": "COC(=O)[C@@]1(Cc2ccc(F)cc2)[C@H]2c3cc(C(=O)N(C)C)n(Cc4c(CO)ncc(C)c4O)c3C[C@H]2CN1C(=O)c1ccccc1", "values": [{"measurement": "AC50", "setting": "Cytochrome P450 2C19; read-out: AC50", "value": "25.1 µM (inconclusive)"}, {"measurement": "AC50", "setting": "Cytochrome P450 1A2", "value": "25.1 µM (inconclusive)"}]}, {"compound": "COC(=O)c1cn(NC(=O)CCC2CCCC2)c(=O)c2ccccc12", "values": [{"measurement": "EC50", "setting": "[1]", "value": "> 195 µM (not active)"}]}, {"compound": "O=C(c1cccc(F)c1)N1CCC2(CCCN(c3ccncc3)C2)CC1", "values": [{"measurement": "AC50", "setting": "Cytochrome P450 2D6", "value": "15.8 µM (inconclusive)"}, {"measurement": "AC50", "setting": "Cytochrome P450 1A2", "value": "31.6 µM (inconclusive)"}]}, {"compound": "COc1ccc2[nH]cc(CCNc3nc(-c4ccoc4)nc4ccccc34)c2c1", "values": [{"measurement": "AC50", "setting": "Cytochrome P450 2C9", "value": "1 µM (inconclusive)"}]}, {"compound": "CN(C)c1ccc(-c2ccc3ncnc(N4CCNCC4)c3c2)cc1", "values": [{"measurement": "AC50", "setting": "Cytochrome P450 2C19; read-out: AC50", "value": "25.1 µM (inconclusive)"}]}, {"compound": "CN(C)CCOC(=O)C1(c2ccccc2)CCOCC1", "values": [{"measurement": "AC50", "setting": "Cytochrome P450 2C19; read-out: AC50", "value": "20 µM (inconclusive)"}]}, {"compound": "COc1ccc(/C=N/NC(=O)Nc2cccc3nsnc23)cc1OC", "values": [{"measurement": "EC50", "setting": "[1]", "value": "9.51 µM (active)"}]}, {"compound": "C#CCCCO/N=C1/C[C@@H](O)[C@@H](O)[C@@H]2[C@@H]3C(=O)N(Cc4ccccc4)C(=O)[C@H]3CC[C@@H]12", "values": [{"measurement": "AC50", "setting": "Cytochrome P450 2C19", "value": "inconclusive"}]}, {"compound": "Cc1cccc(OCCCC(=O)Nc2ccccc2C(F)(F)F)c1", "values": [{"measurement": "AC50", "setting": "Cytochrome P450 2D6", "value": "25.1 µM (inconclusive)"}]}, {"compound": "Cn1c(=O)c2c(nc(Sc3ncnn3CC(=O)N3CCOCC3)n2C)n(C)c1=O", "values": [{"measurement": "EC50", "setting": "[1]", "value": "> 195 µM (not active)"}]}, {"compound": "Cc1cc(NC(=O)Nc2ccc(F)cc2)no1", "values": [{"measurement": "AC50", "setting": "Cytochrome P450 2C9", "value": "15.8 µM (inconclusive)"}]}, {"compound": "O=C(O)c1ccccc1Nc1cccc(C(F)(F)F)c1", "note": "[FLUFENAMIC ACID]", "values": [{"measurement": "AC50", "setting": "Cytochrome P450 2C9", "value": "10 µM (inconclusive)"}]}, {"compound": "CCCn1c(N)c(C(=O)CSc2nc3ccccc3c(=O)n2Cc2ccccc2)c(=O)[nH]c1=O", "values": [{"measurement": "EC50", "setting": "[1]", "value": "> 195 µM (not active)"}]}, {"compound": "CCCOc1ccc2cc(C(=O)NCc3ccccc3)c(=O)oc2c1", "values": [{"measurement": "EC50", "setting": "[1]", "value": "42 µM (active)"}]}, {"compound": "CC(=O)c1cccc(NC(=O)CN2C(S)=NC(C)(C)CC2C)c1", "note": "(configuration not stated)", "values": [{"measurement": "EC50", "setting": "[1]", "value": "> 195 µM (not active)"}]}, {"compound": "COc1ccc(Nc2nc(Nc3ccc(OC)cc3)nc(-n3[nH]c(=O)c(C)c3C)n2)cc1", "values": [{"measurement": "EC50", "setting": "[1]", "value": "22.3 µM (active)"}]}, {"compound": "COc1cccc(C(=O)Nc2ccc(NC(=O)c3ccco3)cn2)c1", "values": [{"measurement": "AC50", "setting": "Cytochrome P450 2D6", "value": "20 µM (inconclusive)"}, {"measurement": "AC50", "setting": "Cytochrome P450 1A2", "value": "25.1 µM (inconclusive)"}]}, {"compound": "Cc1ccc(F)cc1NC(=O)CCNC(=O)c1ccc([N+](=O)[O-])cc1", "values": [{"measurement": "EC50", "setting": "[1]", "value": "> 195 µM (not active)"}]}, {"compound": "O=C(O)c1csc(-c2ccccc2)n1", "values": [{"measurement": "EC50", "setting": "[1]", "value": "> 195 µM (not active)"}]}, {"compound": "CCOC(=O)c1nnc(O)c2ccccc12", "values": [{"measurement": "EC50", "setting": "[1]", "value": "> 195 µM (not active)"}]}, {"compound": "COc1ccccc1CNc1ncnc2ccc(-c3cccc(C#N)c3)cc12", "values": [{"measurement": "AC50", "setting": "Cytochrome P450 2D6", "value": "2.51 µM (inconclusive)"}]}, {"compound": "CC(=O)Nc1cccc(-n2c(=O)n(Cc3ccccc3)c(=O)c3[nH]cnc32)c1", "values": [{"measurement": "EC50", "setting": "[1]", "value": "> 195 µM (not active)"}]}, {"compound": "O=C(CCCC(=O)N(c1ccc2c(c1)OCCO2)C(C(=O)NC1CCCCC1)c1ccc(Cl)cc1)Nc1ccccn1", "note": "(configuration not stated)", "values": [{"measurement": "EC50", "setting": "[1]", "value": "> 195 µM (not active)"}]}, {"compound": "CCCN1C(=O)C(Cc2nc3ccccc3c(=O)n2C)c2ccccc21", "note": "(configuration not stated)", "values": [{"measurement": "AC50", "setting": "Cytochrome P450 2C19; read-out: AC50", "value": "0.0562 µM (inconclusive)"}, {"measurement": "AC50", "setting": "Cytochrome P450 2D6", "value": "17.8 µM (inconclusive)"}, {"measurement": "AC50", "setting": "Cytochrome P450 1A2", "value": "25.1 µM (inconclusive)"}]}, {"compound": "Cc1cccc(CNc2ncnc3ccc(-c4cccc(C#N)c4)cc23)c1", "values": [{"measurement": "AC50", "setting": "Cytochrome P450 2C9", "value": "0.794 µM (inconclusive)"}]}]}
